Reference: patent US11661426B2, “Imidazole-containing inhibitors of ALK2 kinase” (BioCryst Pharmaceuticals, Inc., priority 2017, dated 2023)

Target: ALK2 (Homo sapiens (Human), UniProt Q04771)
Experiment: ALK2 inhibition, LanthaScreen Eu Kinase Binding Assay (ThermoFisher Scientific / Life Technologies)
Details: read-out: Measured Ki (IC50) Value for Compounds: IC50
Description: Biochemical assays to measure the inhibitory effects of the compounds were performed by ThermoFisher Scientific (Life Technologies). ALK2 inhibition was tested using LanthaScreen™ Eu Kinase Binding Assay screening protocol.

ALK2, sequence (Q04771 21-509): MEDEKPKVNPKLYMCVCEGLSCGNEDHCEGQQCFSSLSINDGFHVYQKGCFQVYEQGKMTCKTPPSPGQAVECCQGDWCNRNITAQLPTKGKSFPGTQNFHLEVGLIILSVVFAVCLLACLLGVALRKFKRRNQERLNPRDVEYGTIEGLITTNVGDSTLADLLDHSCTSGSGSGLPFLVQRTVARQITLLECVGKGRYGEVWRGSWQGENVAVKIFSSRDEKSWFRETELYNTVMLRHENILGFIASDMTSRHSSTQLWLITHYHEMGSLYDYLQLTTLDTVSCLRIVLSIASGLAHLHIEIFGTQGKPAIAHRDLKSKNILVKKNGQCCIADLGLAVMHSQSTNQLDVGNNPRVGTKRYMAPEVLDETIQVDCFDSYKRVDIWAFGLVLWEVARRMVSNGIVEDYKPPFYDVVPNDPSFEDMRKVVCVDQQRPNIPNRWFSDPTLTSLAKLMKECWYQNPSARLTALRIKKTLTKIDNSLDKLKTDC

Compound	IC50
Cn1cnc(Nc2nc(Cl)nc3ccoc23)c1 [Compound 1b, 2-chloro-N-(1-methyl-1H-imidazol-4-yl)furo[3,2-d]pyrimidin-4-amine]	> 1 µM
Cn1cnc(Nc2nc(Cl)nn3cccc23)c1 [Compound 4b, 2-chloro-N-(1-methyl-1H-imidazol-4-yl)pyrrolo[2,1-f][1,2,4]triazin-4-amine]	> 1 µM
Cn1cnc(Nc2nc(N3CCCC3c3ccccn3)nn3cccc23)c1 (centres unmarked) [Compound 4c, N-(1-methyl-1H-imidazol-4-yl)-2-(2-(pyridin-2-yl)pyrrolidin-1-yl)pyrrolo[1,2-f][1,2,4]triazin-4-amine]	< 0.1 µM
Cn1cnc(Nc2nc(N3CCCC3c3ccccn3)nc3ccoc23)c1 (centres unmarked) [Compound 5a, N-(1-methyl-1H-imidazol-4-yl)-2-(2-(pyridin-2-yl)pyrrolidin-1-yl)furo[3,2-d]pyrimidin-4-amine]	< 0.1 µM
Cn1cnc(Nc2nc(N3CCC[C@H]3CO)nn3cccc23)c1 [Compound 6a, (S)-(1-(4-(1-methyl-1H-imidazol-4-ylamino)pyrrolo[1,2-f][1,2,4]triazin-2-yl)pyrrolidin-2-yl)methanol]	0.1 to 1 µM
Cn1cnc(Nc2nc(N3CCC[C@@H]3CO)nn3cccc23)c1 [Compound 7a, (R)-(1-(4-(1-methyl-1H-imidazol-4-ylamino)pyrrolo[1,2-f][1,2,4]triazin-2-yl)pyrrolidin-2-yl)methanol]	> 1 µM
Cn1cnc(Nc2nc(N3CCCC3c3cccnc3)nc3ccoc23)c1 (centres unmarked) [Compound 11a, N-(1-methyl-1H-imidazol-4-yl)-2-(2-(pyridin-3-yl)pyrrolidin-1-yl)furo[3,2-d]pyrimidin-4-amine]	< 0.1 µM
Cn1cnc(Nc2nc(N3CCCC3c3ccccn3)nc3ccsc23)c1 (centres unmarked) [Compound 12c, N-(1-methyl-1H-imidazol-4-yl)-2-(2-(pyridin-2-yl)pyrrolidin-1-yl)thieno[3,2-d]pyrimidin-4-amine]	< 0.1 µM
Cn1cnc(Nc2nc(N3CCC[C@H]3c3ccccn3)nn3cccc23)c1 [Compound 18a, (S)—N-(1-methyl-1H-imidazol-4-yl)-2-(2-(pyridin-2-yl)pyrrolidin-1-yl)pyrrolo[2,1-f][1,2,4]triazin-4-amine]	< 0.1 µM
Cn1cnc(Nc2nc(N3CCCC3c3cccnc3)nn3cccc23)c1 (centres unmarked) [Compound 19a, N-(1-methyl-1H-imidazol-4-yl)-2-(2-(pyridin-3-yl)pyrrolidin-1-yl)pyrrolo[2,1-f][1,2,4]triazin-4-amine]	< 0.1 µM
Cn1cnc(Nc2nc(N3CCCC3c3ccncc3)nn3cccc23)c1 (centres unmarked) [Compound 20a, N-(1-methyl-1H-imidazol-4-yl)-2-(2-(pyridin-4-yl)pyrrolidin-1-yl)pyrrolo[2,1-f][1,2,4]triazin-4-amine]	0.1 to 1 µM
OC[C@@H]1CCCN1c1nc(Nc2cn(C3CC3)cn2)c2cccn2n1 [Compound 26c, (S)-(1-(4-((1-cyclopropyl-1H-imidazol-4-yl)amino)pyrrolo[2,1-f][1,2,4]triazin-2-yl)pyrrolidin-2-yl)methanol]	0.1 to 1 µM
c1ccc(C2CCCN2c2nc(Nc3cn(C4CC4)cn3)c3cccn3n2)nc1 (centres unmarked) [Compound 27a, N-(1-cyclopropyl-1H-imidazol-4-yl)-2-(2-(pyridin-2-yl)pyrrolidin-1-yl)pyrrolo[2,1-f][1,2,4]triazin-4-amine]	0.1 to 1 µM
OC[C@@H]1CCCN1c1nc(Nc2cn(C3CCCCC3)cn2)c2cccn2n1 [Compound 28c, (S)-(1-(4-((1-cyclohexyl-1H-imidazol-4-yl)amino)pyrrolo[2,1-f][1,2,4]triazin-2-yl)pyrrolidin-2-yl)methanol]	0.1 to 1 µM
c1ccc(C2CCCN2c2nc(Nc3cn(C4CCCCC4)cn3)c3cccn3n2)nc1 (centres unmarked) [Compound 29a, N-(1-cyclohexyl-1H-imidazol-4-yl)-2-(2-(pyridin-2-yl)pyrrolidin-1-yl)pyrrolo[2,1-f][1,2,4]triazin-4-amine]	0.1 to 1 µM
c1ccc(C2CCCN2c2nc(Nc3cn(C4CC4)cn3)c3cccn3n2)cc1 (centres unmarked) [Compound 30a, N-(1-cyclopropyl-1H-imidazol-4-yl)-2-(2-phenylpyrrolidin-1-yl)pyrrolo[2,1-f][1,2,4]triazin-4-amine]	0.1 to 1 µM
CN1CCN(c2nc(Nc3cn(C)cn3)c3cccn3n2)CC1 [Compound 34a, N-(1-methyl-1H-imidazol-4-yl)-2-(4-methylpiperazin-1-yl)pyrrolo[2,1-f][1,2,4]triazin-4-amine]	> 1 µM
c1ccc(C2CCCN2c2nc(Nc3cn(C4CCC4)cn3)c3cccn3n2)nc1 (centres unmarked) [Compound 37c, N-(1-cyclobutyl-1H-imidazol-4-yl)-2-(2-(pyridin-2-yl)pyrrolidin-1-yl)pyrrolo[2,1-f][1,2,4]triazin-4-amine]	< 0.1 µM

The next lines start with the values.

IC50	Compound
0.1 to 1 µM	Cn1cnc(Nc2nc(N3CCC[C@H]3CO)nc3ccoc23)c1 [Compound 2a, (S)-(1-(4-((1-methyl-1H-imidazol-4-yl)amino)furo[3,2-d]pyrimidin-2-yl)pyrrolidin-2-yl)methanol]
> 1 µM	Cn1cnc(Nc2nc(N3CCC[C@@H]3CO)nc3ccoc23)c1 [Compound 3a, (R)-(1-(4-((1-methyl-1H-imidazol-4-yl)amino)furo[3,2-d]pyrimidin-2-yl)pyrrolidin-2-yl)methanol]
< 0.1 µM	OC[C@@H]1CCCN1c1nc(Nc2cn(-c3ccccc3)cn2)c2cccn2n1 [Compound 8c, (S)-(1-(4-((1-phenyl-1H-imidazol-4-yl)amino)pyrrolo[2,1-f][1,2,4]triazin-2-yl)pyrrolidin-2-yl)methanol]
0.1 to 1 µM	c1ccc(-n2cnc(Nc3nc(N4CCCC4c4ccccn4)nn4cccc34)c2)cc1 (centres unmarked) [Compound 9a, N-(1-phenyl-1H-imidazol-4-yl)-2-(2-(pyridin-2-yl)pyrrolidin-1-yl)pyrrolo[2,1-f][1,2,4]triazin-4-amine]
< 0.1 µM	Cn1cnc(Nc2nc(N3CCCC3c3ccccc3)nn3cccc23)c1 (centres unmarked) [Compound 10a, N-(1-methyl-1H-imidazol-4-yl)-2-(2-phenylpyrrolidin-1-yl)pyrrolo[2,1-f][1,2,4]triazin-4-amine]
< 0.1 µM	Cn1cnc(Nc2nc(N3CCCC3c3ccccc3)nc3ccoc23)c1 (centres unmarked) [Compound 13a, N-(1-methyl-1H-imidazol-4-yl)-2-(2-phenylpyrrolidin-1-yl)furo[3,2-d]pyrimidin-4-amine]
< 0.1 µM	OC[C@@H]1CCCN1c1nc(Nc2cn(-c3ccccc3)cn2)c2occc2n1 [Compound 14b, (S)-(1-(4-((1-phenyl-1H-imidazol-4-yl)amino)furo[3,2-d]pyrimidin-2-yl)pyrrolidin-2-yl)methanol]
< 0.1 µM	Cn1cnc(Nc2nc(N3CCC[C@H]3c3ccccc3)nn3cccc23)c1 [Compound 15a, (S)—N-(1-methyl-1H-imidazol-4-yl)-2-(2-phenylpyrrolidin-1-yl)pyrrolo[2,1-f][1,2,4]triazin-4-amine]
< 0.1 µM	OC[C@@H]1CCCN1c1nc(Nc2cn(-c3ccccc3)cn2)c2sccc2n1 [Compound 16b, (S)-(1-(4-((1-phenyl-1H-imidazol-4-yl)amino)thieno[3,2-d]pyrimidin-2-yl)pyrrolidin-2-yl)methanol]
0.1 to 1 µM	C[C@H](Nc1nc(Nc2cn(-c3ccccc3)cn2)c2sccc2n1)c1ccccc1 [Compound 17a, (S)—N4-(1-phenyl-1H-imidazol-4-yl)-N2-(1-phenylethyl)thieno[3,2-d]pyrimidine-2,4-diamine]
< 0.1 µM	C[C@H](Nc1nc(Nc2cn(C)cn2)c2ccccc2n1)c1ccccc1 [Compound 21c, (S)—N4-(1-methyl-1H-imidazol-4-yl)-N2-(1-phenylethyl)quinazoline-2,4-diamine]
< 0.1 µM	Cc1cc2c(Nc3cn(-c4ccccc4)cn3)nc(N3CCC[C@H]3CO)nc2s1 [Compound 22c, (S)-(1-(6-methyl-4-((1-phenyl-1H-imidazol-4-yl)amino)thieno[2,3-d]pyrimidin-2-yl)pyrrolidin-2-yl)methanol]
< 0.1 µM	Cc1cc2nc(N3CCC[C@H]3CO)nc(Nc3cn(-c4ccccc4)cn3)c2s1 [Compound 23c, (S)-(1-(6-methyl-4-((1-phenyl-1H-imidazol-4-yl)amino)thieno[3,2-d]pyrimidin-2-yl)pyrrolidin-2-yl)methanol]
0.1 to 1 µM	C[C@H](Nc1nc(Nc2cn(-c3ccccc3)cn2)c2ccccc2n1)c1ccccc1 [Compound 24b, (S)—N4-(1-phenyl-1H-imidazol-4-yl)-N2-(1-phenylethyl)quinazoline-2,4-diamine]
< 0.1 µM	OC[C@@H]1CCCN1c1nc(Nc2cn(-c3ccc(F)cc3)cn2)c2cccn2n1 [Compound 25c, (S)-(1-(4-((1-(4-fluorophenyl)-1H-imidazol-4-yl)amino)pyrrolo[2,1-f][1,2,4]triazin-2-yl)pyrrolidin-2-yl)methanol]
< 0.1 µM	OC[C@@H]1CCCN1c1nc(Nc2cn(-c3ccccc3)cn2)c2ccsc2n1 [Compound 31c, (S)-(1-(4-((1-phenyl-1H-imidazol-4-yl)amino)thieno[2,3-d]pyrimidin-2-yl)pyrrolidin-2-yl)methanol]
< 0.1 µM	OC[C@@H]1CCCN1c1nc(Nc2cn(-c3ccccc3)cn2)c2ccccc2n1 [Compound 32a, (S)-(1-(4-((1-phenyl-1H-imidazol-4-yl)amino)quinazolin-2-yl)pyrrolidin-2-yl)methanol]
< 0.1 µM	c1ccc(-n2cnc(Nc3nc(N4CCCC4c4ccccn4)nc4ccoc34)c2)cc1 (centres unmarked) [Compound 33a, N-(1-phenyl-1H-imidazol-4-yl)-2-(2-(pyridin-2-yl)pyrrolidin-1-yl)furo[3,2-d]pyrimidin-4-amine]
0.1 to 1 µM	CN1CCN(c2nc(Nc3cn(-c4ccccc4)cn3)c3cccn3n2)CC1 [Compound 35a, 2-(4-methylpiperazin-1-yl)-N-(1-phenyl-1H-imidazol-4-yl)pyrrolo[2,1-f][1,2,4]triazin-4-amine]
< 0.1 µM	OC[C@@H]1CCCN1c1nc(Nc2cn(-c3ccccc3F)cn2)c2cccn2n1 [Compound 36c, (S)-(1-(4-((1-(2-fluorophenyl)-1H-imidazol-4-yl)amino)pyrrolo[2,1-f][1,2,4]triazin-2-yl)pyrrolidin-2-yl)methanol]
